# Reference: publication PMC9945734 (BMC Medicine, 2023)
# Structures can show the parent of a compound that is named as a salt. Where two headings read alike, the source gives them in different places.
# Test system: PC-3-KQ cells
# Assay: 3D spheroid invasion assay and screening of FDA-approved drugs
# Format: cell-based, human
# Set-up: activity: dose or concentration left out as unconfirmed
# Conditions: compared to vehicle control
# Experimental: The invasion assay was performed as previously described. […] The plates were then centrifuged at 320 g for 4 min to cluster cells in the bottom of wells and incubated for 3 days. On the fourth day, 40 μL medium was removed from each well, 40 μL of the matrigel-medium mixture was added to each well, and cells were cultured for another 3 days. […] At the end of the incubation, images were taken using a phase contrast microscope (Eclipse Ti2, Nikon, Tokyo, Japan) with 10× object lenses, and the total area of cells and the core sphere area of cells (Fig. 1a) were measured using the Image J software. The invading area was calculated using the following formula: invasion area = total area of cells – core sphere area.
# For drug screening, drugs were added to the matrigel-medium mixture when replacing the culture medium on day 4. For the initial round of screening, a final concentration of 10 μM was used for all drugs. Multiple drug concentrations were used for the second round of screening, including 0, 0.001, 0.01, 0.1, 1, and 10 μM. Duplicate wells were repeated for each concentration.
# [1] = 0.01 μM (second column so headed), secondary screening of 87 hit compounds (Table S1)
# [2] = 0.1 μM, secondary screening of 87 hit compounds (Table S1)
# [3] = 1 μM, secondary screening of 87 hit compounds (Table S1)
# [4] = 10 μM, secondary screening of 87 hit compounds (Table S1)
# [5] = Homo sapiens, 72 h, 0.01 μM (first column so headed), secondary screening of 87 hit compounds (Table S1), read-out: Invasion rates (%) of each drug’s multiple concentrations
# [6] = Homo sapiens, 72 h, 0.01 μM (second column so headed), secondary screening of 87 hit compounds (Table S1), read-out: Invasion rates (%) of each drug’s multiple concentrations
# [7] = Homo sapiens, 72 h, 0.1 μM, secondary screening of 87 hit compounds (Table S1), read-out: Invasion rates (%) of each drug’s multiple concentrations
# [8] = Homo sapiens, 72 h, 1 μM, secondary screening of 87 hit compounds (Table S1), read-out: Invasion rates (%) of each drug’s multiple concentrations
# [9] = Homo sapiens, 72 h, 10 μM, secondary screening of 87 hit compounds (Table S1), read-out: Invasion rates (%) of each drug’s multiple concentrations
# [10] = Homo sapiens, 72 h, 0.01 μM (first column so headed), third screening of 25 hit compounds (Table S2), read-out: Invasion rates (%) of each drug’s multiple concentrations
# [11] = Homo sapiens, 72 h, 0.01 μM (second column so headed), third screening of 25 hit compounds (Table S2), read-out: Invasion rates (%) of each drug’s multiple concentrations
# [12] = Homo sapiens, 72 h, 0.1 μM, third screening of 25 hit compounds (Table S2), read-out: Invasion rates (%) of each drug’s multiple concentrations
# [13] = Homo sapiens, 72 h, 1 μM, third screening of 25 hit compounds (Table S2), read-out: Invasion rates (%) of each drug’s multiple concentrations
# [14] = Homo sapiens, 72 h, 10 μM, third screening of 25 hit compounds (Table S2), read-out: Invasion rates (%) of each drug’s multiple concentrations
# [15] = 0.01 μM (first column so headed), secondary screening of 87 hit compounds (Table S1)
Compound,Invasion rates (%) of each drug’s multiple concentrations (μM) [1],Invasion rates (%) of each drug’s multiple concentrations (μM) [2],Invasion rates (%) of each drug’s multiple concentrations (μM) [3],Invasion rates (%) of each drug’s multiple concentrations (μM) [4],activity at 0.01 µM [5],activity at 0.01 µM [6],activity at 0.1 µM [7],activity at 1 µM [8],activity at 10 µM [9],"activity (Homo sapiens, 72 h, secondary screening of 87 hit compounds (Table S1), read-out: Invasion rates (%) of each drug’s multiple concentrations)",activity at 0.01 µM [10],activity at 0.01 µM [11],activity at 0.1 µM [12],activity at 1 µM [13],activity at 10 µM [14],Invasion rates (%) of each drug’s multiple concentrations (μM) [15]
Gramicidin,107.53%,94.19%,93.53%,0.41%,,,,,,,,,,,,
N[C@@H](Cc1cc(I)c(Oc2ccc(O)c(I)c2)c(I)c1)C(=O)O [Liothyronine],,,,,93.5%,97.4%,93.3%,92.5%,50.6%,,,,,,,
COc1cc([C@@H]2c3cc4c(cc3[C@@H](O[C@@H]3O[C@@H]5CO[C@@H](c6cccs6)O[C@H]5[C@H](O)[C@H]3O)[C@H]3COC(=O)[C@H]23)OCO4)cc(OC)c1O [Teniposide],,,,,93.1%,91.8%,85%,77.2%,3.21%,,,,,,,
C/C(=C\C(=O)OCCCCCCCCC(=O)O)C[C@@H]1OC[C@H](C[C@@H]2O[C@H]2[C@@H](C)[C@H](C)O)[C@@H](O)[C@H]1O [Mupirocin],,,,,95.2%,98%,95.3%,80%,5.95%,,,,,,,
NC(=O)N/N=C/c1ccc([N+](=O)[O-])o1 [Nitrofurazone],,,,,94.8%,,80.4%,70.7%,6.3%,98.8%,,,,,,
Cn1nnc(-c2ccc(-c3ccc(N4C[C@H](COP(=O)(O)O)OC4=O)cc3F)cn2)n1 [Tedizolid (phosphate)],,,,,89%,91.7%,70.7%,3.59%,3.35%,,99.8%,96.1%,90.7%,3.28%,2.87%,
COc1cccc2c1C(=O)c1c(O)c3c(c(O)c1C2=O)C[C@@](O)(C(=O)CO)C[C@@H]3O[C@H]1C[C@H](N)[C@@H](O)[C@H](C)O1.Cl [Epirubicin (hydrochloride)],95.60%,93.22%,88.57%,4.65%,,,,,,,,,,,,94.42%
COc1ccc(CN(CCN(C)C)c2ccccn2)cc1 [Mepyramine maleate],,,,,101%,98.3%,99.1%,97.9%,48.9%,,,,,,,
CN(C)c1ccc(O)c2c1C[C@H]1C[C@H]3[C@H](N(C)C)C(=O)C(C(N)=O)=C(O)[C@@]3(O)C(=O)C1=C2O.Cl [Minocycline (hydrochloride)],98.27%,80.93%,62.17%,5.40%,,,,,,,,,,,,87.07%
CN(C)C(=O)c1cc2cnc(Nc3ccc(N4CCNCC4)cn3)nc2n1C1CCCC1 [Ribociclib],,,,,99.5%,101%,97.2%,96%,30.9%,,,,,,,
CC(C)C[C@H](NC(=O)CNC(=O)c1cc(Cl)ccc1Cl)B1OC(=O)C(CC(=O)O)(CC(=O)O)O1 [Ixazomib citrate],,,,,69.8%,81.3%,26.9%,1.95%,1.55%,,100%,96.7%,91.4%,54.2%,0.4%,
CCCCCCCCN=c1ccn(CCCCCCCCCCn2ccc(=NCCCCCCCC)cc2)cc1.Cl.Cl [Octenidine (dihydrochloride)],100.69%,97.53%,95.54%,46.51%,,,,,,,,,,,,97.90%
